From US5001143A, “Pharmaceutical composition for prophylactic and preventive of ketosis of livestocks” (Nihon Nohyaku Co., Ltd., priority 1983, dated 1991) come the findings set out here.

A word on the LD50: it is the dose expected to kill half of the subjects tested.

For one data set, the system named is male mice. Nature of the data set: Toxicity, LD50 (male mice). As to conditions: male mice.
For a further data set, the system named is cows seized by ketosis. Nature of the data set: Pharmacological test: oral administration of granules to cows seized by ketosis once daily for 6 weeks, blood and urine components with time. For Ketone bodies in urine: key: +++: Detected noticeably; ++: Detected clearly; +: Slightly detected; -: Not detected. The class given is in vivo. How it is done:
Pharmacological tests for the active ingredient of pharmaceutical composition of the present invention were conducted, by making the active ingredient into granules as in Example 1 and forcibly administering the granules orally to cows seized by ketosis in a predetermined dose once daily for 6 weeks. Examinations of various check items were made for bloods and urines taken from the cows before and 1, 3 and 6 weeks after the administration. In serum biochemical diagnosis, bloods were taken, coagulated and then subjected to centrifugation (3,000 rpm, 15 min.) to obtain respective serums and these serums were used. Blood sugar level was determined by a method using a glucose oxidase; free fatty acids were determined by an ACS-ACO-POD method; and ketone bodies in blood were determined by a diffusion colorimetry using salicyl aldehyde (THIN-ROBERTSON method). Ketone bodies in urine were determined by the use of Labstix (Sankyo Miles).
50 Parts of a compound No. 6, 15.0 parts of light silicic acid anhydride, 5.0 parts of precipitated calcium carbonate, 5.0 parts of corn starch, 2.0 parts of crystalline cellulose, 5.0 parts of a polyvinyl alcohol and 30 parts of water are homogeneously mixed and kneaded. Then, the mixture is ground, pelletized, dried and sifted to prepare granules. The granules are used for curing of ketosis of cows.

Data set [1] in a line: Toxicity, LD50 (male mice). As to conditions: mouse, in vivo.
The mark [2] stands for this setting: 77.2 mg/kg oral once daily, 1 week after adm.
Where [3] appears, read: 77.2 mg/kg oral once daily, 3 weeks after adm.
Where [4] appears, read: 77.2 mg/kg oral once daily, 6 weeks after adm.
Setting [5] is: 77.2 mg/kg oral once daily, before adm.
The mark [6] stands for this setting: 25 mg/kg oral once daily, 1 week after adm.
The mark [7] stands for this setting: 25 mg/kg oral once daily, 3 weeks after adm.
[8] abbreviates: 25 mg/kg oral once daily, 6 weeks after adm.
The mark [9] stands for this setting: 25 mg/kg oral once daily, before adm.
Where [10] appears, read: 50 mg/kg oral once daily, 1 week after adm.
[11] abbreviates: 50 mg/kg oral once daily, 3 weeks after adm.
[12] abbreviates: 50 mg/kg oral once daily, 6 weeks after adm.
The mark [13] stands for this setting: 50 mg/kg oral once daily, before adm.
[14] abbreviates: 100 mg/kg oral once daily, 1 week after adm.
The mark [15] stands for this setting: 100 mg/kg oral once daily, 3 weeks after adm.
Setting [16] is: 100 mg/kg oral once daily, 6 weeks after adm.
Setting [17] is: 100 mg/kg oral once daily, before adm.

For the molecule `CC(C)OC(=O)C(C(=O)OC(C)C)=C1SC=CS1` [compound 4], the LD50 in the data set with male mice was 3,120 mg/kg. For the same molecule, in the data set on cows seized by ketosis (setting [2]), the “Acetoacetic acid in blood” value was found to be 50 µmol/L, the Blood sugar level stood at 40.3 mg/dL, the “Free fatty acids in blood” value came to 428 μEq/l and the “Ketone bodies in urine” value is on record as “++”. In the data set with cows seized by ketosis (setting [3]), the “Acetoacetic acid in blood” value was determined as 142 µmol/L, the Blood sugar level was determined as 55.4 mg/dL, the “Free fatty acids in blood” value was 303 μEq/l and the “Ketone bodies in urine” value is “+”. In addition, in the data set on cows seized by ketosis (setting [4]), the “Acetoacetic acid in blood” value amounted to 146 µmol/L, the Blood sugar level was 57.7 mg/dL, the “Free fatty acids in blood” value is on record as 238 μEq/l and the “Ketone bodies in urine” value is “-”. Further, in the data set with cows seized by ketosis (setting [5]), the “Acetoacetic acid in blood” value came to 446 µmol/L, the Blood sugar level was determined as 43.2 mg/dL, the “Free fatty acids in blood” value is listed as 1,377 μEq/l and the “Ketone bodies in urine” value was “+++”.
In the case of `CC(C)OC(=O)C(C(=O)OC(C)C)=C1SCC[S+]1[O-]` (stereo not shown) [compound 7], the median lethal dose (LD50) in data set [1] is over 6000 mg/kg.
Turning to `CC(C)OC(=O)C(C(=O)OC(C)C)=C1SCCS1` [compound 6, diisopropyl 1,3-dithiolan-2-ylindene malonate], the LD50 in the data set with male mice was 1,350 mg/kg. The “Acetoacetic acid in blood” value with cows seized by ketosis (setting [6]) is 630 µmol/L; with cows seized by ketosis (setting [7]), 156 µmol/L; in the data set on cows seized by ketosis (setting [8]), 104 µmol/L; with cows seized by ketosis (setting [9]), 662 µmol/L; in the data set on cows seized by ketosis (setting [10]), 1,344 μmol/1; with cows seized by ketosis (setting [11]), 608 μmol/1. Further, the entries for the “Acetoacetic acid in blood” value in the data set on cows seized by ketosis (setting [12]) and with cows seized by ketosis (setting [13]) were 102 μmol/1 and 1,550 μmol/1, respectively. The Blood sugar level in the data set on cows seized by ketosis (setting [6]) is 23.5 mg/dL; in the data set with cows seized by ketosis (setting [7]) it was 52.9 mg/dL; in the data set on cows seized by ketosis (setting [8]) it was 59.0 mg/dL; in the data set with cows seized by ketosis (setting [9]), 30.6 mg/dL; in the data set with cows seized by ketosis (setting [10]) it was 34.3 mg/dL; with cows seized by ketosis (setting [11]) it was 43.3 mg/dL. The Blood sugar level was 64.8 mg/dL with cows seized by ketosis (setting [12]) and 33.6 mg/dL in the data set on cows seized by ketosis (setting [13]). Also, the “Free fatty acids in blood” value with cows seized by ketosis (setting [6]) was 550 μEq/l; in the data set with cows seized by ketosis (setting [7]), 201 μEq/l; in the data set on cows seized by ketosis (setting [8]), 351 μEq/l; with cows seized by ketosis (setting [9]), 1,148 μEq/l; with cows seized by ketosis (setting [10]) it was 556.6 μEq/l; in the data set with cows seized by ketosis (setting [11]), 507.5 μEq/l. Further, the “Free fatty acids in blood” value in the data set on cows seized by ketosis (setting [12]) is 118.2 μEq/l; in the data set with cows seized by ketosis (setting [13]), 1,862.3 μEq/l. Further, the “Ketone bodies in urine” value in the data set on cows seized by ketosis (setting [6]) is recorded as “++”; with cows seized by ketosis (setting [9]), “+++”; with cows seized by ketosis (setting [10]), “+”; in the data set on cows seized by ketosis (setting [11]), “-”; in the data set on cows seized by ketosis (setting [12]), “-”; in the data set with cows seized by ketosis (setting [13]), “+++”.
Consider `CCOC(=O)C(C(=O)OC(C)C)=C1SCS1` [compound 2], for which the LD50 in data set [1] was over 5000 mg/kg.
`CC(C)OC(=O)C(C(=O)OC(C)C)=C1SC(C(=O)O)S1` (stereo not shown) [compound 3] registered a median lethal dose (LD50) in data set [1] of over 5000 mg/kg. In the data set on cows seized by ketosis (setting [6]), the “Acetoacetic acid in blood” value came out at 220 µmol/L, the Blood sugar level is 38.4 mg/dL, the “Free fatty acids in blood” value is listed as 416 μEq/l and the “Ketone bodies in urine” value was “++”. Further, in the data set with cows seized by ketosis (setting [7]), the “Acetoacetic acid in blood” value came out at 816 µmol/L, the Blood sugar level is 34.0 mg/dL, the “Free fatty acids in blood” value was found to be 306 μEq/l and the “Ketone bodies in urine” value is recorded as “+”. Also, in the data set on cows seized by ketosis (setting [8]), the “Acetoacetic acid in blood” value worked out at 400 µmol/L, the Blood sugar level came out at 43.3 mg/dL, the “Free fatty acids in blood” value was 418 μEq/l and the “Ketone bodies in urine” value is “+”. In addition, in the data set with cows seized by ketosis (setting [9]), the “Acetoacetic acid in blood” value worked out at 628 µmol/L, the Blood sugar level stood at 33.0 mg/dL, the “Free fatty acids in blood” value is reported as 1,423 μEq/l and the “Ketone bodies in urine” value is “+++”.
In data set [1], `CC(C)OC(=O)C(C(=O)OC(C)C)=C1SCS1` [compound 1] displayed an LD50 of over 5000 mg/kg.
In data set [1], `CC(C)OC(=O)C(C(=O)OC(C)C)=C1SCC(O)S1` (stereo not shown) [compound 8] came in with a 50% lethal dose (LD50) of over 6590 mg/kg. In the data set with cows seized by ketosis (setting [14]), the “Acetoacetic acid in blood” value stood at 260 µmol/L, the Blood sugar level amounted to 48.4 mg/dL, the “Free fatty acids in blood” value is listed as 476 μEq/l and the “Ketone bodies in urine” value was “+”. In the data set on cows seized by ketosis (setting [15]), the “Acetoacetic acid in blood” value was 586 µmol/L, the Blood sugar level was 41.0 mg/dL, the “Free fatty acids in blood” value stood at 747 μEq/l and the “Ketone bodies in urine” value is recorded as “+”. In the data set on cows seized by ketosis (setting [16]), the “Acetoacetic acid in blood” value is 76 µmol/L, the Blood sugar level stood at 53.5 mg/dL, the “Free fatty acids in blood” value stood at 371 μEq/l and the “Ketone bodies in urine” value is on record as “-”. In the data set with cows seized by ketosis (setting [17]), the “Acetoacetic acid in blood” value is reported as 1,232 μmol/l, the Blood sugar level is 32.0 mg/dL, the “Free fatty acids in blood” value was 1,727 μEq/l and the “Ketone bodies in urine” value is given as “+++”.
